Results taken from patent US4690920A, “Derivative of cephalosporanic acid and pharmaceutical composition comprising the same” (Kureha Kagaku Kogyo Kabushiki Kaisha, priority 1982, dated 1987).

Assays:
[1] = test system: A species of Bacterioides; assay: Effect on the intestinal bacterial colonies: number of a species of Bacterioides in feces; type: in vivo, Bacteroides (feces of female ICR mice); conditions: oral, 500 mg/kg/day for 2 days; feces one day after administration; before administration 8.1
Protocol: (§1) After collecting the feces of a group of mice, each of the compounds represented by the formula (I) was orally administered to each of the group for 2 continued days at a daily dose rate of 500 mg per kg body weight, and the feces were again collected one day after the administration. Each portion of the thus collected, two kinds of the feces was cultured at 25° C. or 37° C. in a variety of culture media for one to five days to see the state of growth of the following bacteria which are present habitually in the intestine of the mouse: Escherichia coli, Pseudomonas aeruginosa, a streptococcus bacterial species, a lactobacillis bacteria, Lactobacillus bifidus and a bacterioides bacteria.
(§2) Each of the compounds, respectively produced in Examples 1 to 6 was orally administered for two continued days at a daily dosage of 500 mg/kg body weight to each of five female ICR mice of a group after 6 weeks of birth.
(§3) Each of the two fecal specimens respectively collected before and after one day of the administration was diluted with 100 times by weight of an anaerobic diluent (a phosphoric buffer solution) and was ground in a mortar, and 0.1 ml of the ground material was smeared on each of the following culture media for the following bacteria and the thus inoculated culture media were incubated under the following conditions. Thereafter, the number of the following bacteria was determined on each culture medium.
a species of NBGT agar 37° C., for 5 days,7 -Bacteroides anaer

[2] = test system: A species of Lactobacillus; assay: Effect on the intestinal bacterial colonies: number of a species of Lactobacillus in feces; type: in vivo, Lactobacillus (feces of female ICR mice); conditions: for Log10 value of the number of bacterial cells/g of feces, a species of Lactobacillus: oral, 500 mg/kg/day for 2 days, feces one day after administration, before administration 9.0
Protocol: as §1, §2, §3
a species of LBS agar 37° C., for 5 days, […]

[3] = test system: A species of Streptococcus; assay: Effect on the intestinal bacterial colonies: number of a species of Streptococcus in feces; type: in vivo, Streptococcus (feces of female ICR mice); conditions: oral, 500 mg/kg/day for 2 days; feces one day after administration; before administration 6.4
Protocol: as §1, §2, §3
a species of TATAC agar 37° C., for 1 day, […]

Pseudomonas aeruginosa = assay: Effect on the intestinal bacterial colonies: number of Pseudomonas aeruginosa in feces; type: in vivo, Pseudomonas aeruginosa (feces of female ICR mice); conditions: oral, 500 mg/kg/day for 2 days; feces one day after administration; before administration <3.0
Protocol: as §1, §2, §3
NAC agar 37° C., for 1 day, […]

Lactobacillus bifidus = assay: Effect on the intestinal bacterial colonies: number of Lactobacillus bifidus in feces; type: in vivo, Lactobacillus bifidus (feces of female ICR mice); conditions: oral, 500 mg/kg/day for 2 days; feces one day after administration; before administration 8.0
Protocol: as §1, §2, §3
BS agar 37° C., for 5 days, […]

Escherichia coli = assay: Effect on the intestinal bacterial colonies: number of Escherichia coli in feces; type: in vivo, Escherichia coli (feces of female ICR mice); conditions: for Log10 value of the number of bacterial cells/g of feces, Escherichia coli: oral, 500 mg/kg/day for 2 days, feces one day after administration, before administration 7.0
Protocol: as §1, §2, §3
DHL agar 37° C., for 1 day, […]

[4] = test system: Staphylococcus aureus IAM 1011; assay: Anti-bacterial activity, agar plate dilution method (MIC), Staphylococcus aureus; type: cell-based; conditions: 18 to 24 hours, 37° C.; for Minimum concentration of inhibiting growth of Staphylococcus aureus (MIC): Mueller-Hinton agar
Protocol: (§4) 3-1: The minimum growth-inhibiting concentration (MIC) of each of the compounds represented by the formula (I) was measured according to the standard procedures of Japan Society of Chemotherapy against each of the following bacterial species:
Staphylococcus aureus, IAM 1011
(§5) Anti-bacterial activity of each of the compounds produced in Examples 1 to 6 was measured according to the standard procedures of Japan Society of Chemotherapy in agar plate dilution method as follows:
(§6) As a test bacterial species, Escherichia coli IFO 12734 and Staphylococcus aureus IAM 1011, and each strain was inoculated into Mueller-Hinton's culture medium for 18 to 48 hours at 37° C., and while using the thus cultured bacteria, each of the test bacterial liquid containing 10^6 cells in one ml was prepared.
(§7) Separately, after preparing each series of diluted aqueous solutions of each of the compounds produced in Examples 1 to 6, respectively, each of them was mixed in amount of 1/9 time by weight with the Mueller-Hinton's culture medium and each flat agar culture plate was prepared by using the thus formed mixture.

[5] = test system: Escherichia coli IFO 12734; assay: Anti-bacterial activity, agar plate dilution method (MIC), Escherichia coli; type: cell-based; conditions: 18 to 24 hours, 37° C.; for Minimum concentration of inhibiting growth of Escherichia coli (MIC): Mueller-Hinton agar
Protocol: as §4
Escherichia coli, IFO 12734 and
as §5, §6, §7

[6] = test system: Staphylococcus aureus IAM 1011; assay: Model test for verifying the activation in living body: growth-inhibition circle with/without rat liver S-9 mix; type: cell-based; conditions: 20 min at 37° C., then 18 hours at 37° C.; for Sign: diameter of growth-inhibiting circle as percentage of that due to compound of formula (II), with the addition of S-9 mix: with the addition of S-9 mix (rat liver homogenate)
Protocol: On each flat culture plate prepared by adding 10^8 cells/ml of a preliminarily cultured Staphylococcus aureus IAM 1011 into 50 times by weight of Mueller-Hinton's agar culture medium, a penicillin cup of 8 mm in diameter was placed, and into each cup 0.1 ml of each of the compounds represented by the formula (I) or 0.1 ml of a cultured product of each of the compounds represented by the formula (I) together with a rat liver homogenate (containing a metabolism-activating enzyme, referred to as S-9 mix) was introduced. The diameter of each growth-inhibition circle formed around the cup after incubating the flat culture plate with the cup for 18 hours at 37° C. was measured, and the thus obtained value was compared to the value obtained by the same procedures except for using the compound represented by the formula (II), the starting compound instead of each of the compounds represented by the formula (I).
As a metabolism-activating enzyme, a rat liver homogenate (S-9, manufactured by Oriental Yeast Co.) was used in the following composition (referred to as S-9 mix, hereinafter):
After mixing 0.1 ml of a solution of the compound to be tested with 0.9 ml of S-9 mix or 0.9 ml of 0.1M phosphoric acid buffer solution, the mixture was subjected to shaking culture for 20 min at 37° C. to prepare a test reaction solution for use in the following experiment.
Staphylococcus aureus IAM 1011 was inoculated to Mueller-Hinton's culture medium and the inoculum was cultured for 18 hours at 37° C. and after adjusting the number of the bacterial cells to 10^8 /ml of the culture medium, 50 times by weight of the Mueller-Hinton's agar culture medium were added to the cultured medium to prepare flat culture plates.
After placing a penicillin-cup of 8 mm in diameter on each of the thus prepared flat culture plates, 0.1 ml of the above-mentioned test reaction solution was introduced into the penicillin-cup, and after leaving the system for 2 hours at 4° C., the system was incubated for 18 hour at 37° C., and the diameter of the growth-inhibition circle around the cup on the culture plate was determined.
The thus obtained diameter of the growth-inhibiting circle due to each of the compounds produced respectively in Examples 1 to 6 was compared to that due to the compound repesente by the formula (II), substituted cephalosporanic acid by percentage, and the following signs were respectively given to the respective compounds as follows: […]

[7] = compared to that before administration

Row | Compound | Minimum concentration of inhibiting growth of Staphylococcus aureus (MIC) [4] [microgram/ml] | Minimum concentration of inhibiting growth of Escherichia coli (MIC) [5] [microgram/ml] | MIC ([4]; IAM1011, Mueller-Hinton agar, read-out: Minimum concentration of inhibiting growth of Staphylococcus aureus (MIC)) [µg/mL] | MIC ([5]; IFO12734, Mueller-Hinton agar, read-out: Minimum concentration of inhibiting growth of Escherichia coli (MIC)) [µg/mL] | Log10 value of the number of bacterial cells/g of feces, a species of Bacterioides [1] | number of a certain species of Lactobacillus after administration (in words) [2, 7] | Log10 value of the number of bacterial cells/g of feces, a species of Lactobacillus [2] | Log10 value of the number of bacterial cells/g of feces, a species of Streptococcus [3] | Log10 value of the number of bacterial cells/g of feces, Pseudomonas aeruginosa (Pseudomonas aeruginosa) | Log10 value of the number of bacterial cells/g of feces, Lactobacillus bifidus (Lactobacillus bifidus) | number of cells of Escherichia coli after administration (in words) (Escherichia coli; [7]) | Log10 value of the number of bacterial cells/g of feces, Escherichia coli (Escherichia coli) | Sign: diameter of growth-inhibiting circle as percentage of that due to compound of formula (II), with the addition of S-9 mix [6] | Sign: diameter of growth-inhibiting circle as percentage of that due to compound of formula (II), without adding S-9 mix [6]
1 | CO[C@@]1(NC(=O)CSCC#N)C(=O)N2C(C(=O)O)=C(CSc3nnnn3C)CS[C@@H]21 [CEFMETAZOLE, reference compound] | – | – | – | – | 4.6 Log10 cells/g of feces | showed a reduction | 4.0 Log10 cells/g of feces | < 3.0 Log10 cells/g of feces | 7.0 Log10 cells/g of feces | 3.8 Log10 cells/g of feces | showed an increase | < 3.0 Log10 cells/g of feces | – | –
2 | COC(=O)c1ccc(NC(=O)C2=C(CSc3nnnn3C)CSC3N2C(=O)C3(NC(=O)CSCC#N)OC)cc1 (stereo not drawn) [Example 2, N-(4-carbomethoxyphenyl)-{7-beta-cyanomethylthioacetamido-7-alpha-methoxy-3-[(1-methyl-1H-tetrazol-5-yl)thio]methyl-3-cepheme-4-carboxylic}amide] | ≥ 100 | ≥ 100 | – | – | 8.0 Log10 cells/g of feces | – | 9.1 Log10 cells/g of feces | 6.2 Log10 cells/g of feces | < 3.0 Log10 cells/g of feces | 8.0 Log10 cells/g of feces | – | 6.6 Log10 cells/g of feces | + (1 to 33) | - (0)
3 | COC1(NC(=O)CSCC#N)C(=O)N2C(C(=O)Nc3ccc(C(=O)O)cc3)=C(CSc3nnnn3C)CSC21 (stereo not drawn) [Example 1, N-(4-carboxyphenyl)-{7-beta-cyanomethylthioacetamido-7-alpha-methoxy-3-[(1-methyl-1H-tetrazol5-yl)thio]methyl-3-cepheme-4-carboxylic}amide] | ≥ 100 | ≥ 100 | – | – | 8.1 Log10 cells/g of feces | – | 8.9 Log10 cells/g of feces | 6.0 Log10 cells/g of feces | < 3.0 Log10 cells/g of feces | 8.0 Log10 cells/g of feces | – | 7.2 Log10 cells/g of feces | + (1 to 33) | - (0)

Continued, in another order:

Row | Minimum concentration of inhibiting growth of Staphylococcus aureus (MIC) [4] [microgram/ml] | Minimum concentration of inhibiting growth of Escherichia coli (MIC) [5] [microgram/ml] | MIC ([4]; IAM1011, Mueller-Hinton agar, read-out: Minimum concentration of inhibiting growth of Staphylococcus aureus (MIC)) [µg/mL] | MIC ([5]; IFO12734, Mueller-Hinton agar, read-out: Minimum concentration of inhibiting growth of Escherichia coli (MIC)) [µg/mL] | Compound | Log10 value of the number of bacterial cells/g of feces, a species of Bacterioides [1] | number of a certain species of Lactobacillus after administration (in words) [2, 7] | Log10 value of the number of bacterial cells/g of feces, a species of Lactobacillus [2] | Log10 value of the number of bacterial cells/g of feces, a species of Streptococcus [3] | Log10 value of the number of bacterial cells/g of feces, Pseudomonas aeruginosa (Pseudomonas aeruginosa) | Log10 value of the number of bacterial cells/g of feces, Lactobacillus bifidus (Lactobacillus bifidus) | number of cells of Escherichia coli after administration (in words) (Escherichia coli; [7]) | Log10 value of the number of bacterial cells/g of feces, Escherichia coli (Escherichia coli) | Sign: diameter of growth-inhibiting circle as percentage of that due to compound of formula (II), with the addition of S-9 mix [6] | Sign: diameter of growth-inhibiting circle as percentage of that due to compound of formula (II), without adding S-9 mix [6]
4 | – | – | ≥ 100 | ≥ 100 | COC(=O)Cc1ccc(NC(=O)C2=C(CSc3nnnn3C)CS[C@H]3N2C(=O)[C@]3(NC(=O)CSCC#N)OC)cc1 [Example 3, N-(4-carbomethoxymethylphenyl)-{7-betacyanomethylthioacetamido-7-alpha-methoxy-3-[(1-methyl-1H-tetrazol-5-yl)thio]methyl-3-cepheme-4-carboxylic}amide] | 8.0 Log10 cells/g of feces | – | 9.1 Log10 cells/g of feces | 6.0 Log10 cells/g of feces | < 3.0 Log10 cells/g of feces | 7.9 Log10 cells/g of feces | – | 7.1 Log10 cells/g of feces | ± (0 to 1) | - (0)
5 | ≥ 100 | ≥ 100 | – | – | COC1(NC(=O)CSCC#N)C(=O)N2C(C(=O)Nc3ccc(C)cc3)=C(CSc3nnnn3C)CSC21 (stereo not drawn) [Example 6, N-(4-methylphenyl)-{7-beta-cyanomethylthioacetamido-7-alpha-methoxy-3-[(1-methyl-1H-tetrazol-5-yl)thio]methyl-3-cepheme-4-carboxylic}amide] | 8.0 Log10 cells/g of feces | – | 9.2 Log10 cells/g of feces | 6.3 Log10 cells/g of feces | < 3.0 Log10 cells/g of feces | 8.0 Log10 cells/g of feces | – | 6.9 Log10 cells/g of feces | + (1 to 33) | - (0)
